Laboratory results reported in patent EP1159267B1, “N-SUBSTITUTED INDOLINES AS ESTROGENIC AGENTS” (Wyeth, priority 1999, dated 2000).
pIC50: −log10 of the molar value. Structures can show the parent of a compound that is named as a salt.

Molecular target: T1, estrogen receptor (ER) (Homo sapiens, UniProt P03372)
T1 construct: expressed in transfected cells; host or cells: CHO cells (ribosome-free cytosol)
T1 sequence (P03372 1-595): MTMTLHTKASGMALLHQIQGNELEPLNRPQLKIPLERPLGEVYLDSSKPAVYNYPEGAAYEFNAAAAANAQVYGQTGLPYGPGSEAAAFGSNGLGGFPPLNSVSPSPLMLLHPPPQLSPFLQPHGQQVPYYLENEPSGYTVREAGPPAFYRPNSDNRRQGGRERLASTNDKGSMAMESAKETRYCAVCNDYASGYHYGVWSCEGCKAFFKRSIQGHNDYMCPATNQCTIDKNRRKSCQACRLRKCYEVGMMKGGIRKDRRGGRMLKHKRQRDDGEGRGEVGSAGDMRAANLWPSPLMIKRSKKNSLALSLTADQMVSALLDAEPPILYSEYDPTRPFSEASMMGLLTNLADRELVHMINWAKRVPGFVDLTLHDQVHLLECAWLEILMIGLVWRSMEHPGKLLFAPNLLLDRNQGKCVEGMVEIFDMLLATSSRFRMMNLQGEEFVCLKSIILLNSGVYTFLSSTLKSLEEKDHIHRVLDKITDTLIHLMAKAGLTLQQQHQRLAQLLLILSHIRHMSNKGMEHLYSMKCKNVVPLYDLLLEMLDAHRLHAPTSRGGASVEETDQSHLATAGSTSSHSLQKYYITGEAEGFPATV
Assay: Receptor Binding Assay (competition with [3H]17β-estradiol)
Details: cytosol of CHO cells overexpressing the estrogen receptor; 0.8 nM [3H]17β-estradiol; 12 competitor concentrations; room temperature, 2.5 h

| Structure (SMILES) | pIC50 |
| --- | --- |
| CC1(C)c2cc(O)ccc2N(Cc2ccc(OCCN3CCCCC3)cc2)C1c1ccccc1 (stereo not shown) [Example No. 4, 3,3-dimethyl-2-phenyl-1-[4-(2-piperidin-1-yl-ethoxy)-benzyl]-2,3-dihydro-1H-indol-5-ol (HCl)] | 6.10 |
| CC1(C)c2cc(O)ccc2N(Cc2ccc(OCCN3CCCCCC3)cc2)C1c1ccccc1 (stereo not shown) [Example No. 6, 1-[4-(2-Azepan-1-yl-ethoxy)-benzyl]-3,3-dimethyl-2-phenyl-2,3-dihydro-1H-indol-5-ol] | 6.00 |
| CC1(C)c2cc(O)ccc2N(Cc2ccc(OCCN3CCCCC3)cc2)C1c1ccc(O)cc1 (stereo not shown) [Example No. 9, 2-(4-Hydroxy-phenyl)-3,3-dimethyl-1-[4-(2-piperidin-1-yl-ethoxy)-benzyl]-2,3-dihydro-1H-indol-5-ol] | 6.51 |
| CC1(C)c2cc(O)ccc2N(Cc2ccc(OCCN3CCCCCC3)cc2)C1(c1ccccc1)c1ccc(O)cc1 (stereo not shown) [Example No. 11, 1-[4-(2-Azepan-1-yl-ethoxy)-benzyl]-2-(4-hydroxy-phenyl)-3,3-dimethyl-2-Phenyl-2,3-dihydro-1H-indol-5-ol] | 6.46 |
